# Where “and” joins values, the source holds several entries; their conditions need not be identical. Identical values can stand only once.
# Test: Pharmacokinetics after single oral administration to beagle dogs;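 on AUC0-inf of Compound A (as titled): compound A is measured in plasma as a metabolite of the dosed analog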;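 on AUC0-last of Compound A (as titled): compound A is measured in plasma as a metabolite of the dosed analog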;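 on Tlast of Compound A (as titled): compound A is measured in plasma as a metabolite of the dosed analog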;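 on Tmax of Compound A (as titled): compound A is measured in plasma as a metabolite of the dosed analog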
# Type: in vivo
# Method: The concentrations of the analytes in the plasma were quantified by liquid chromatography tandem mass spectrometry (LC-MS/MS).
# The bioanalytical assay provided a lower limit of quantification (LLOQ) of 1.0 ng/mL and an upper limit of quantification (ULOQ) of 3000 ng/mL for all the analytes. The data of plasma concentration vs. time were analyzed using Phoenix WinNonlin 8.3 to determine the PK properties of the analytes.
# The test articles were administered orally by gavage. The nominal dose volume was 5 mL/kg for both analogs.
# The observation included appearance, behavior, morbidity and mortality.
# Approximately 0.5 mL blood was collected at each scheduled time point from the peripheral veins.
# The plasma samples were placed in microcentrifuge tubes and stored at −70+10° C. until analysis.
# [1] = after single PO 10 mg/kg of Compound I-17/I-19, female individual
# [2] = after single PO 10 mg/kg of Compound I-17/I-19, female individual, 10 mg/kg
# [3] = after single PO 10 mg/kg of Compound I-17/I-19, female mean
# [4] = after single PO 10 mg/kg of Compound I-17/I-19, male individual
# [5] = after single PO 10 mg/kg of Compound I-17/I-19, male individual, 10 mg/kg
# [6] = after single PO 10 mg/kg of Compound I-17/I-19, male mean
# [7] = after single PO 80 mg/kg (so in the source) of Compound I-17/I-19, female individual, 80 mg/kg
# [8] = after single PO 80 mg/kg (so in the source) of Compound I-17/I-19, female mean
# [9] = after single PO 80 mg/kg (so in the source) of Compound I-17/I-19, male individual
# [10] = after single PO 80 mg/kg (so in the source) of Compound I-17/I-19, male individual, 80 mg/kg
# [11] = after single PO 80 mg/kg (so in the source) of Compound I-17/I-19, male mean
smiles,measurement,setting,value
Clc1ccc(C2(OCC3OCCO3)c3ccccc3C3=NCCN32)cc1 (centres unmarked) [Compound I-19],Tlast of Compound A (as titled),[1],8.00 h
same,Tmax of Compound A (as titled),[1],1.00 h
same,AUC0-inf of Compound A (as titled),[2],786 ng·h/mL and 1047 ng·h/mL
same,AUC0-last of Compound A (as titled),[2],739 ng·h/mL and 932 ng·h/mL
same,Cmax of Compound A (as titled),[2],258 ng/mL and 262 ng/mL
same,MRT0-inf of Compound A (as titled),[2],2.82 h and 3.68 h
same,MRT0-last of Compound A (as titled),[2],2.29 h and 2.65 h
same,T1/2 of Compound A (as titled),[2],2.23 h and 2.77 h
same,AUC0-inf of Compound A (as titled),[3],916 ng·h/mL
same,AUC0-last of Compound A (as titled),[3],836 ng·h/mL
same,Cmax of Compound A (as titled),[3],260 ng/mL
same,MRT0-inf of Compound A (as titled),[3],3.25 h
same,MRT0-last of Compound A (as titled),[3],2.47 h
same,T1/2 of Compound A (as titled),[3],2.50 h
same,Tlast of Compound A (as titled),[3],8.00 h
same,Tmax of Compound A (as titled),[3],1.00 h
same,Tlast of Compound A (as titled),[4],8.00 h
same,Tmax of Compound A (as titled),[4],1.00 h
same,AUC0-inf of Compound A (as titled),[5],843 ng·h/mL and 756 ng·h/mL
same,AUC0-last of Compound A (as titled),[5],801 ng·h/mL and 737 ng·h/mL
same,Cmax of Compound A (as titled),[5],312 ng/mL and 281 ng/mL
same,MRT0-inf of Compound A (as titled),[5],2.72 h and 2.50 h
same,MRT0-last of Compound A (as titled),[5],2.29 h and 2.31 h
same,T1/2 of Compound A (as titled),[5],1.93 h and 1.39 h
same,AUC0-inf of Compound A (as titled),[6],799 ng·h/mL
same,AUC0-last of Compound A (as titled),[6],769 ng·h/mL
same,Cmax of Compound A (as titled),[6],297 ng/mL
same,MRT0-inf of Compound A (as titled),[6],2.61 h
same,MRT0-last of Compound A (as titled),[6],2.30 h
same,T1/2 of Compound A (as titled),[6],1.66 h
same,Tlast of Compound A (as titled),[6],8.00 h
same,Tmax of Compound A (as titled),[6],1.00 h
same,Tlast of Compound A,"after single PO 80 mg/kg (so in the source) of Compound I-17/I-19, female individual",24.0 h
same,AUC0-inf of Compound A,[7],982 ng·h/mL and 1387 ng·h/mL
same,AUC0-last of Compound A,[7],919 ng·h/mL and 1108 ng·h/mL
same,Cmax of Compound A,[7],160 ng/mL and 113 ng/mL
same,MRT0-inf of Compound A,[7],7.98 h and 14.9 h
same,MRT0-last of Compound A,[7],6.23 h and 8.76 h
same,T1/2 of Compound A,[7],6.54 h and 10.7 h
same,Tmax of Compound A,[7],0.500 h and 2.00 h
same,AUC0-inf of Compound A,[8],1185 ng·h/mL
same,AUC0-last of Compound A,[8],1013 ng·h/mL
same,Cmax of Compound A,[8],137 ng/mL
same,MRT0-inf of Compound A,[8],11.5 h
same,MRT0-last of Compound A,[8],7.49 h
same,T1/2 of Compound A,[8],8.61 h
same,Tlast of Compound A,[8],24.0 h
same,Tmax of Compound A,[8],1.25 h
same,Tlast of Compound A,[9],24.0 h
same,Tmax of Compound A,[9],1.00 h
same,AUC0-inf of Compound A,[10],1022 ng·h/mL and 661 ng·h/mL
same,AUC0-last of Compound A,[10],958 ng·h/mL and 622 ng·h/mL
same,Cmax of Compound A,[10],136 ng/mL and 111 ng/mL
same,MRT0-inf of Compound A,[10],8.63 h and 7.66 h
same,MRT0-last of Compound A,[10],7.01 h and 6.08 h
same,T1/2 of Compound A,[10],6.05 h and 6.28 h
same,AUC0-inf of Compound A,[11],841 ng·h/mL
same,AUC0-last of Compound A,[11],790 ng·h/mL
same,Cmax of Compound A,[11],123 ng/mL
same,MRT0-inf of Compound A,[11],8.14 h
same,MRT0-last of Compound A,[11],6.54 h
same,T1/2 of Compound A,[11],6.16 h

# Source: patent US20250108038A1 (priority 2023, published 2025)
